{"source": "paper PMC10526274", "about": "“Epithelial-Immune Cell Crosstalk Determines the Activation of Immune Cells In Vitro by the Human Cathelicidin LL-37 at Low Physiological Concentrations” (Biomolecules, 2023)", "tested_on": "Caco-2/monocytes co-culture", "assay": "Multiplex xMAP cytokine levels, Caco-2/monocytes co-culture stimulated with LL-37", "assay_type": "cell-based, human", "conditions": "monocytes/Caco-2 co-culture, 1 µM LL-37, 24 h, n=2", "procedure": "Caco-2 cell line (ATCC HTB-37) was cultured in a humidified CO2-incubator (5% CO2, 37 °C) in the complete DMEM/F12 (1:1) medium (Gibco, Waltham, MA, USA) containing 10% fetal bovine serum (FBS, Gibco) and 1X antibiotic–antimycotic solution (Gibco). To stabilize the cell phenotype, Caco-2 cells have been subcultivated three times before seeding on the filter supports. Then, Caco-2 cells were seeded at a density of 2 × 10^5 cells/cm^2 onto 24-well Millicell cell culture inserts (PC, 0.4-μm pore size, 0.6 cm^2 surface area, cat. #PIHP01250) (Millipore, Burlington, MA, USA), precoated with 0.2% bovine gelatin (Sigma-Aldrich, Saint Louis, MO, USA). After seeding, Caco-2 cells were grown in the same complete medium with re-feeding every 2–3 days until polarization of the monolayer occurred. The functional polarity of the monolayers was developed when transepithelial electrical resistance (TEER) between the apical and basolateral surfaces of the monolayers reached […] as measured by the electrical resistance system Millicell-ERS Voltohmmeter (Millipore, Burlington, MA, USA). Grown cell monolayers were used in transport and cytokine production experiments between the 21st and 29th days.\nPeripheral blood mononuclear cells (PBMCs) from a healthy donor were purchased from the American Type Culture Collection (ATCC PCS-800-011). Blood monocytes were isolated from PBMCs by plastic adhesion. Mature monocyte-derived dendritic cells (moDCs) were generated in vitro from peripheral blood monocytes, according to Nair et al.. Briefly, monocytes were cultured in a humidified CO2-incubator (5% CO2, 37 °C) in the complete RPMI-1640 medium (Gibco) with 10% FBS, antibiotics, and supplemented with a cytokine cocktail containing 500 U/mL rhIL-4 and 800 U/mL rhGM-CSF (both Sci-Store, Moscow, Russia). On the third day, the medium was replaced by the same fresh medium with FBS, antibiotics, and the cytokine cocktail. Induction of maturation of the immature monocyte-derived dendritic cells was performed on the 5th day by replacing the medium with the complete RPMI-1640 medium (Gibco) with 10% FBS and antibiotics, supplemented with a cytokine cocktail containing 500 U/mL rhIL-4, 800 U/mL rhGM-CSF (both Sci-Store, Moscow, Russia), and 100 U/mL rhTNF-α (Sigma-Aldrich), and subjected to subsequent incubation of the culture for 4 more days.\nPrimary blood monocytes, moDCs, and NKT cells were seeded in 600 µL of complete RPMI-1640 with 10% Human AB serum (Capricorn Scientific, Ebsdorfergrund, Germany) and supplemented with 1X antibiotic–antimycotic solution into the wells of 24-well plates at a density of 3–7 × 10^5 cells/well 24 h before the experiment. Then, 24 h later, the medium in each well was replaced by the same medium with 1 µM of LL-37 for the sample wells or fresh medium alone for the control wells, and the permeable inserts with the Caco-2 monolayer with TEER > 400 Ω × cm^2, containing 400 μL of the complete medium in their apical chamber, were immediately placed into the appropriate wells. Also, inserts with the Caco-2 monolayer were placed in cell-free wells of 24-well plates in the same complete RPMI-1640 medium with or without 1 µM of LL-37 as controls. Cells were kept in a CO2-incubator (5% CO2, 37 °C) for another 24 h. Then, culture medium from each well was collected, centrifuged, and frozen at −70 °C.\nTo quantitatively evaluate a broad spectrum of analytes secreted by human cell cultures at the protein level, multiplex xMAP technology was used. […]", "note": "Values joined by “and” are separate entries in the source; they are usually repeats but may differ in a detail not shown here. Identical values can stand only once.", "data": [{"substance": "LL-37: the only human cathelicidin, host defense antimicrobial peptide of 37 a.a. residues, produced by solid-phase peptide synthesis", "values": [{"measurement": "IL-2 level", "setting": "control 1.07", "value": 1.07, "unit": "pg/mL"}, {"measurement": "FLT-3L level", "setting": "control 1.18", "value": 1.37, "unit": "pg/mL"}, {"measurement": "IFNg level", "setting": "control 1.33", "value": 2.28, "unit": "pg/mL"}, {"measurement": "IL-15 level", "setting": "control 1.67", "value": 2.58, "unit": "pg/mL"}, {"measurement": "IL-18 level", "setting": "control 3.28", "value": 2.42, "unit": "pg/mL"}, {"measurement": "TGF-a level", "setting": "control 3.5", "value": 3.88, "unit": "pg/mL"}, {"measurement": "GM-CSF level", "setting": "control 3.75", "value": 18.58, "unit": "pg/mL"}, {"measurement": "IL-4 level", "setting": "control 6.54", "value": 8.01, "unit": "pg/mL"}, {"measurement": "IL-9 level", "setting": "control 6.65", "value": 8.94, "unit": "pg/mL"}, {"measurement": "EGF level", "setting": "control 8.06", "value": 10.26, "unit": "pg/mL"}, {"measurement": "IFNa2 level", "setting": "control 11.65", "value": 13.12, "unit": "pg/mL"}, {"measurement": "IL-10 level", "setting": "control 14.79, p = 0.0007", "value": "57.4 pg/mL and 57.47 pg/mL"}, {"measurement": "TNFb level", "setting": "control 21.66, p = 0.015", "value": 30.56, "unit": "pg/mL"}, {"measurement": "IL-1a level", "setting": "control 22.02", "value": 53.04, "unit": "pg/mL"}, {"measurement": "Fractalkine level", "setting": "control 22.95", "value": 31.4, "unit": "pg/mL"}, {"measurement": "MIP-1a level", "setting": "control 27.72, p = 0.11", "value": 3622, "unit": "pg/mL"}, {"measurement": "IL-1b level", "setting": "control 29.14, p = 0.0072", "value": "104 pg/mL and 104.8 pg/mL"}, {"measurement": "IL-12 (p40) level", "setting": "control 34.49", "value": 56.57, "unit": "pg/mL"}, {"measurement": "M-GSF level", "setting": "control 35.52", "value": 157.86, "unit": "pg/mL"}, {"measurement": "IL-1RA level", "setting": "control 42.52", "value": 108.8, "unit": "pg/mL"}, {"measurement": "IL-13 level", "setting": "control 42.56", "value": 52.71, "unit": "pg/mL"}, {"measurement": "FGF-2 level", "setting": "control 48.6", "value": 52.5, "unit": "pg/mL"}, {"measurement": "IL-22 level", "setting": "control 48.87, p = 0.029", "value": "71 pg/mL and 71.9 pg/mL"}, {"measurement": "MIP-1b level", "setting": "control 49.37, p = 0.017", "value": ">3455↑ pg/ml"}, {"measurement": "TNFa level", "setting": "control 87.19, p = 0.019", "value": "306 pg/mL and 306.44 pg/mL"}, {"measurement": "IL-27 level", "setting": "control 88.48", "value": 119.16, "unit": "pg/mL"}, {"measurement": "sCD40L level", "setting": "control 92.05", "value": 88.6, "unit": "pg/mL"}, {"measurement": "G-CSF level", "setting": "control 181.87, p = 0.012", "value": 1150, "unit": "pg/mL"}, {"measurement": "IP-10 level", "setting": "control 191.78", "value": 3346, "unit": "pg/mL"}, {"measurement": "PDGF-AA level", "setting": "control 243.05", "value": 189.29, "unit": "pg/mL"}, {"measurement": "MIG level", "setting": "control 306.48, p = 0.0018", "value": "959 pg/mL and 959.23 pg/mL"}, {"measurement": "PDGF-AB/BB level", "setting": "control 692.27", "value": 713.51, "unit": "pg/mL"}, {"measurement": "MCP-3 level", "setting": "control 707.64", "value": 4706, "unit": "pg/mL"}, {"measurement": "VEGFa level", "setting": "control 1586", "value": 2190, "unit": "pg/mL"}, {"measurement": "IL-6 level", "setting": "control 2266", "value": 5678, "unit": "pg/mL"}, {"measurement": "MDC level", "setting": "control 4385", "value": 1264, "unit": "pg/mL"}, {"measurement": "GROa level", "setting": "control 4827", "value": 4862, "unit": "pg/mL"}, {"measurement": "MCP-1 level", "setting": "control 12186", "value": 5364, "unit": "pg/mL"}, {"measurement": "IL-8 level", "setting": "control 15625", "value": 19839, "unit": "pg/mL"}, {"measurement": "IL-7 level", "setting": "control <0.30", "value": "<0.30↓ pg/ml"}, {"measurement": "IL-5 level", "setting": "control <0.35", "value": "<0.35↓ pg/ml"}, {"measurement": "IL-3 level", "setting": "control <0.55", "value": "<0.55↓ pg/ml"}, {"measurement": "RANTES level", "setting": "control <0.64", "value": 729.59, "unit": "pg/mL"}, {"measurement": "IL-17A level", "setting": "control <0.70", "value": 2.63, "unit": "pg/mL"}, {"measurement": "IL-12 (p70) level", "setting": "control <1.71", "value": 2.3, "unit": "pg/mL"}, {"measurement": "Eotaxin level", "setting": "control <2.91", "value": "<2.91↓ pg/ml"}, {"measurement": "IL-17F level", "setting": "control <12.19", "value": "<12.19↓ pg/ml"}, {"measurement": "IL-17E/IL-25 level", "setting": "control <19.43", "value": "<19.43↓ pg/ml"}]}]}
